According to ChEMBL document CHEMBL5131445, “Optimization of a novel piperazinone series as potent selective peripheral covalent BTK inhibitors” (Bioorg Med Chem Lett, 2022):
Converted amounts (≈) assume the structure as drawn.

What was measured:
[1] = target: T1, Tyrosine-protein kinase BTK (Homo sapiens, UniProt Q06187); assay: Inhibition of BTK (unknown origin)
[2] = target: T1, Tyrosine-protein kinase BTK; assay: Inhibition of pBTK in human whole blood; assay type: tissue-based
[3] = Metabolic stability in human liver microsomes assessed as intrinsic clearance; assay type: ADME, Microsome; conditions: read-out: CLH
[4] = Inhibition of CD69 expression on CD19 positive B cells in anti-IgD stimulated human whole blood; assay type: functional, tissue-based; conditions: CD19 positive B cell
[5] = Metabolic stability in rat liver microsomes assessed as intrinsic clearance; assay type: ADME, Microsome; conditions: read-out: CLH
[6] = Solubility of the compound at pH 7; assay type: physicochemical; conditions: buffer
[7] = Plasma protein binding in human assessed as unbound fraction by rapid equilibrium dialysis method; assay type: ADME, cell-free
[8] = target: T2, Tyrosine-protein kinase TXK (Homo sapiens, UniProt P42681); assay: Binding affinity to TXK (unknown origin) assessed as dissociation constant by KINOMEscan analysis
T2 sequence (P42681 whole entry): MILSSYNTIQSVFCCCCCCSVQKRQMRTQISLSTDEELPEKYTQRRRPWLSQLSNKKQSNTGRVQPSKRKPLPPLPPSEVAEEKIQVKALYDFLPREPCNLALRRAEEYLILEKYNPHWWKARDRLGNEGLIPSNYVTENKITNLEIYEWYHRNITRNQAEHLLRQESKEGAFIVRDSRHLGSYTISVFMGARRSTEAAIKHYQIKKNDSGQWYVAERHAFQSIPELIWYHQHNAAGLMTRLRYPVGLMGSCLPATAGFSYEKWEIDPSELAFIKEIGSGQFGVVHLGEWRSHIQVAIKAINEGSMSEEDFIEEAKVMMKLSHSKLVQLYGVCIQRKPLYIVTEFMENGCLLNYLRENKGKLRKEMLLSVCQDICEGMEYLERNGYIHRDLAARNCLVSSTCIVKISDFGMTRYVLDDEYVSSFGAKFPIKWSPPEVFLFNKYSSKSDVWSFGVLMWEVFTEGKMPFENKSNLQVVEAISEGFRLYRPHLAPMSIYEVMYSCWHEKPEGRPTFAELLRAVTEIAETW

[9] = target: Tyrosine-protein kinase Blk (Homo sapiens, UniProt P51451); assay: Binding affinity to BLK (unknown origin) assessed as dissociation constant by KINOMEscan analysis
[10] = target: Receptor tyrosine-protein kinase erbB-2 (Homo sapiens, UniProt P04626); assay: Binding affinity to ERBB2 (unknown origin) assessed as dissociation constant by KINOMEscan analysis
[11] = target: T3, Tyrosine-protein kinase Tec (Homo sapiens, UniProt P42680); assay: Binding affinity to TEC (unknown origin) assessed as dissociation constant by KINOMEscan analysis
T3 sequence (P42680 whole entry): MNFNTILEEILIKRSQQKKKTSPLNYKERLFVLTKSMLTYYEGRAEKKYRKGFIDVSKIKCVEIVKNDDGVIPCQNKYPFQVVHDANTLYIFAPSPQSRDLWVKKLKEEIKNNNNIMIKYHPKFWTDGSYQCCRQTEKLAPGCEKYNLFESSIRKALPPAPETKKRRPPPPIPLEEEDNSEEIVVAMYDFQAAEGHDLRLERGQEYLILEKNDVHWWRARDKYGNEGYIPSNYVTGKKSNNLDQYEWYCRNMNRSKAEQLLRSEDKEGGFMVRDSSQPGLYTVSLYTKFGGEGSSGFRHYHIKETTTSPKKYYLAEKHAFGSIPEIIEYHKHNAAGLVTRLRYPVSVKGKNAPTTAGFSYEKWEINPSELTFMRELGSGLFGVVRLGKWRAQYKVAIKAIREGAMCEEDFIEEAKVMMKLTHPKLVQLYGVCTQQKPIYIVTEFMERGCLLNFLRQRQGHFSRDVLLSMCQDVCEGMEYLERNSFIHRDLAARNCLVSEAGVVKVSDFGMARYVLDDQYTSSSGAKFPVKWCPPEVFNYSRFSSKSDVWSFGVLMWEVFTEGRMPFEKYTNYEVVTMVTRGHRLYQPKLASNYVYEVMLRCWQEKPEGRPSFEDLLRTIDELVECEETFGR

T1 sequence (Q06187 whole entry): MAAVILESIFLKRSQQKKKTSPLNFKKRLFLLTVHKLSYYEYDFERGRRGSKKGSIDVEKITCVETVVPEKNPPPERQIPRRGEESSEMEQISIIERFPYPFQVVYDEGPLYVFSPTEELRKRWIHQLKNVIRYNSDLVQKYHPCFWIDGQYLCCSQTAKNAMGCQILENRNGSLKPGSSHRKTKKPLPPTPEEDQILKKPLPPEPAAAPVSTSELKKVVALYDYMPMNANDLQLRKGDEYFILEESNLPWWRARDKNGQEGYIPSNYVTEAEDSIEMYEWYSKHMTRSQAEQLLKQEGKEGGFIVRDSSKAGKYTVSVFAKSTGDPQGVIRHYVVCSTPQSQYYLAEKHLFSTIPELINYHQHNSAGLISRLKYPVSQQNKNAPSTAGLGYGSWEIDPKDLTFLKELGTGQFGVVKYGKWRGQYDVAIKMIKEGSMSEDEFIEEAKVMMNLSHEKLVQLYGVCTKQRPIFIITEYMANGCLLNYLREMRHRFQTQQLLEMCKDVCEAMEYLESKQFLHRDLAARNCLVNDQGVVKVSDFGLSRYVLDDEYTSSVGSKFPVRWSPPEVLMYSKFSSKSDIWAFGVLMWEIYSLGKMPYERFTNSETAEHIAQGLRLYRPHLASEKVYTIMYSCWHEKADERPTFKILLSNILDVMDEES
Sequence of Tyrosine-protein kinase Blk (P51451 whole entry): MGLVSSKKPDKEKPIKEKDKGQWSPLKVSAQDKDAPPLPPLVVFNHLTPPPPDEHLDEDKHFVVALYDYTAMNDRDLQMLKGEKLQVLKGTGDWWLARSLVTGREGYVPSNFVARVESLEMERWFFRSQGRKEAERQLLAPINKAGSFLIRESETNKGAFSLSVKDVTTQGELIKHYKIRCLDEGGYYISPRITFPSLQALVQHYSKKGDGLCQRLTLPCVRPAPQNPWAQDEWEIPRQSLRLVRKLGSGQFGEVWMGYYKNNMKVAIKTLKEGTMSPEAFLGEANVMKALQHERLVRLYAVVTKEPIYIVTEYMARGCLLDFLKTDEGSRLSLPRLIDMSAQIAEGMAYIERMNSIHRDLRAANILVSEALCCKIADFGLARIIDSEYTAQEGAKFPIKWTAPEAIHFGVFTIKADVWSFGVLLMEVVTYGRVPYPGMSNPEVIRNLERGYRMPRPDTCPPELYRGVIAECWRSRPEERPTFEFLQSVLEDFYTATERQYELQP
Sequence of Receptor tyrosine-protein kinase erbB-2 (P04626 whole entry): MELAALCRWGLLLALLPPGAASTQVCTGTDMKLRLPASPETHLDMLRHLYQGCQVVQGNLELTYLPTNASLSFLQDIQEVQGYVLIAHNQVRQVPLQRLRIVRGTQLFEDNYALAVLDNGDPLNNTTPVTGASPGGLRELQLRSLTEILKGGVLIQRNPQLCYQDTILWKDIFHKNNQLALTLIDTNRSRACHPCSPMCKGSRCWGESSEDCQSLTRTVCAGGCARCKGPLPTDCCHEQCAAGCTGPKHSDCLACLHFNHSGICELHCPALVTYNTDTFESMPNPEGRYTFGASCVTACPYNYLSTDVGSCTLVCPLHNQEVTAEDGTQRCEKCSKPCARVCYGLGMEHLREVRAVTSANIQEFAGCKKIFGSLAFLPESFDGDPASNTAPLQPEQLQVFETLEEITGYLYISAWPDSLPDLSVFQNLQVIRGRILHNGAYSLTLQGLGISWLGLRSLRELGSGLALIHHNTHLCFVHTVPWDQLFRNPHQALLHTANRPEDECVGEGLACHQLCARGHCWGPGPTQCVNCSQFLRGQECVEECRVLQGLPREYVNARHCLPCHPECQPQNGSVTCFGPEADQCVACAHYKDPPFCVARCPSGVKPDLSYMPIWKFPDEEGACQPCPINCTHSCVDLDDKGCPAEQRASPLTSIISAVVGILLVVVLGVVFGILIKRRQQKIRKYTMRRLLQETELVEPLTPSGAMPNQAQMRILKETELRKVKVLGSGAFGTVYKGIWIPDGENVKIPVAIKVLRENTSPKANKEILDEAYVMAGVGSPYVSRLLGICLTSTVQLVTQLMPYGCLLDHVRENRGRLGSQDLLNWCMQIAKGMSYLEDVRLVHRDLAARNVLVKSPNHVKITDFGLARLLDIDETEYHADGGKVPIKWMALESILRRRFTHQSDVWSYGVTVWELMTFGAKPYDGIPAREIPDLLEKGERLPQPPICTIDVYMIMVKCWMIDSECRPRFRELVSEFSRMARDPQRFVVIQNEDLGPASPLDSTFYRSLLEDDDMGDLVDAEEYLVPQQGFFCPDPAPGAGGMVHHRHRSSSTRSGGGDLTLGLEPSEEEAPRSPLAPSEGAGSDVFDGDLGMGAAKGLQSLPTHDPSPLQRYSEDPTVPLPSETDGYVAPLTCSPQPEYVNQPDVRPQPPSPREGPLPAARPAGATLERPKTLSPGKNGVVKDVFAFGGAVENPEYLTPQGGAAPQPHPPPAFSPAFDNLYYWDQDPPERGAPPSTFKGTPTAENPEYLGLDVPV

| SMILES | IC50 [1] [nM] | CLint scaled [3] [mL/min/kg] | IC50 [4] [nM] | CLint scaled [5] [mL/min/kg] | other results |
| --- | --- | --- | --- | --- | --- |
| Cc1cc(-c2ccnc(Nc3cnn(C)c3)n2)ccc1CN1CCN(CC(C)(C)C#N)CC1=O | 99 |  |  |  |  |
| Cc1cc(-c2ccnc(Nc3cnn(C)c3)n2)ccc1CN1CCN(C(C)(C)C)CC1=O | 43 |  |  |  |  |
| Cc1cc(-c2ccnc(Nc3cnn(C)c3)n2)ccc1CN1CCN(CC2(C)CC2)CC1=O | 7 |  |  |  |  |
| CC(C)CN1CCN(Cc2ccc(-c3ccnc(Nc4cnn(CCO)c4)n3)cc2C(F)(F)F)C(=O)C1 | 1 |  |  |  | IC50 [2]: 120 nM |
| C=CC(=O)N(C)CCOc1cncnc1-c1ccc(CN2CCN(CC(C)(C)C)CC2=O)cc1 | 17 | 270 | 4700 | 930 |  |
| Cc1cc(-c2ccnc(Nc3cnn(C)c3)n2)ccc1CN1CCN(CC2CC(F)(F)C2)CC1=O | 28 |  |  |  |  |
| Cc1cc(-c2ccnc(Nc3cnn(C4CN(C)C4)c3)n2)ccc1CN1CCN(CC(C)(C)C)CC1=O | 7 |  |  |  | IC50 [2]: 2650 nM |
| CC(C)CN1CCN(Cc2ccc(-c3ccnc(Nc4cnn(CCO)c4)n3)cc2Cl)C(=O)C1 | 4 |  |  |  | IC50 [2]: 990 nM |
| CC(C)(C)CN1CCN(Cc2ccc(-c3ccnc(Nc4cnn(CCO)c4)n3)cc2C(F)(F)F)C(=O)C1 | 0.4 |  |  |  | IC50 [2]: 480 nM |
| Cc1cc(-c2ccnc(Nc3cnn(C)c3)n2)ccc1CN1CCN(CC(C)C)CC1=O | 3 |  |  |  | IC50 [2]: 310 nM |
| Cc1cc(-c2ccnc(Nc3cnn(C)c3)n2)ccc1CN1CCN(CC2CCOC2)CC1=O (stereo unspecified) | 180 |  |  |  |  |
| C=CC(=O)N(C)CCOc1cnccc1-c1ccc(CN2CCN(CC3CCC3)CC2=O)c(C)c1 | 1.2 | 686 | 1080 | 2260 |  |
| CCN1CCN(Cc2ccc(-c3ccnc(Nc4cnn(C)c4)n3)cc2C)C(=O)C1 | 520 |  |  |  |  |
| C=CC(=O)N(C)CCOc1cnccc1-c1ccc(CN2CCN(CCC)CC2=O)c(C)c1 | 4.8 | 286 | 890 | 1540 |  |
| C=CC(=O)N(C)CCOc1cncnc1-c1ccc(CN2CCN(CC(C)(C)C)CC2=O)c(C)c1 | 1.35 | 1370 | 630 | 2500 | solubility [6]: 13 µg/mL (≈ 27.1 µM); fraction unbound [7]: 0.14 |
| CC#CC(=O)N1CCC[C@H]1c1nc(-c2ccc(C(=O)Nc3ccccn3)cc2)c2c(N)nccn12 [ACALABRUTINIB] |  |  |  |  | Kd [8]: 24 nM; Kd [9]: 18 nM |
| CC(=O)N(C)CCOc1cncnc1-c1ccc(CN2CCN(CC(C)(C)C)CC2=O)c(C)c1 | 1720 | 530 | > 10000 | 1500 | fraction unbound [7]: 0.31 |
| C=CC(=O)N(C)CCOc1cncnc1-c1ccc(CN2CCN(CC3(C)CC3)CC2=O)c(C)c1 | 0.98 | 559 | 130 | 2680 |  |
| Cc1cc(-c2ccnc(Nc3cnn(C)c3)n2)ccc1CN1CCN(CC2CN(C)C2)CC1=O | 7300 |  |  |  |  |
| C=CC(=O)N(C)CCOc1c(-c2ccc(CN3CCN(CC(C)C)CC3=O)c(C)c2)ccnc1N | 0.69 | 334 | 360 | 793 | fraction unbound [7]: 0.29 |

| SMILES | IC50 [1] [nM] | CLint scaled [3] [mL/min/kg] | IC50 [4] [nM] | CLint scaled [5] [mL/min/kg] | other results |
| --- | --- | --- | --- | --- | --- |
| C=CC(=O)N(C)CCOc1cncnc1-c1ccc(CN2CCN(CC(C)(C)C)CC2=O)c(F)c1 | 0.44 | 809 | 300 | 3680 |  |
| C=CC(=O)N(C)CCOc1cnccc1-c1ccc(CN2CCN(C(C)C)CC2=O)c(C)c1 | 2.9 | 135 | 920 | 1240 |  |
| Cc1cc(-c2ccnc(Nc3cnn(C)c3)n2)ccc1CN1CCN(CC(C)(C)C)CC1=O | 1 | 228 | > 10000 | 493 | IC50 [2]: 1050 nM; solubility [6]: 11 µg/mL (≈ 24.6 µM); fraction unbound [7]: 0.014 |
| Cc1cc(-c2ccnc(Nc3cnn(C)c3)n2)ccc1CN1CCN(C2CCC2)CC1=O | 11 |  |  |  |  |
| Cc1cc(-c2ccnc(Nc3cnn(C)c3)n2)ccc1CN1CCN(CC(F)(F)F)CC1=O | 160 |  |  |  |  |
| C=CC(=O)N(C)CCOc1cnccc1-c1ccc(CN2CCN(CC)CC2=O)c(C)c1 | 32 | 113 | 4410 | 591 |  |
| C=CC(=O)N(C)CCOc1cncnc1-c1ccc(CN2CCN(C3CCOC3)CC2=O)c(F)c1 (stereo unspecified) | 268 | 81 | > 10000 | 308 |  |
| Cc1cc(-c2ccnc(Nc3cnn(CCO)c3)n2)ccc1CN1CCN(CC(C)C)CC1=O | 3 |  |  |  | IC50 [2]: 590 nM |
| Cc1cc(-c2ccnc(Nc3cnn(CCO)c3)n2)ccc1CN1CCN(CC(C)(C)C)CC1=O | 1 |  |  |  | IC50 [2]: 810 nM |
| C=CC(=O)N(C)CCOc1cnccc1-c1ccc(CN2CCN(CC(C)(C)C)CC2=O)c(C)c1 | 0.44 | 809 | 300 | 3680 | solubility [6]: 55 µg/mL (≈ 115 µM); fraction unbound [7]: 0.11 |
| Cc1cc(-c2ccnc(Nc3cnn(C4CN(C)C4)c3)n2)ccc1CN1CCN(CC(C)C)CC1=O | 7 |  |  |  | IC50 [2]: 350 nM |
| C=CC(=O)N(C)CCOc1cncnc1-c1ccc(CN2CCN(CC(F)(F)F)CC2=O)c(C)c1 | 12 | 316 | 1990 | 1110 |  |
| C=CC(=O)N1CCC([C@@H]2CCNc3c(C(N)=O)c(-c4ccc(Oc5ccccc5)cc4)nn32)CC1 [ZANUBRUTINIB] |  |  |  |  | Kd [10]: 76 nM; Kd [11]: 18 nM; Kd [8]: 980 nM |
| C=CC(=O)N(C)CCOc1cncnc1-c1ccc(CN2CCN(CC3CCC3)CC2=O)c(C)c1 | 1.6 | 384 | 1080 | 1880 |  |
| Cc1cc(-c2ccnc(Nc3cnn(C)c3)n2)ccc1CN1CCN(CC2CNC2)CC1=O | 4200 |  |  |  |  |
| Cc1cc(-c2ccnc(Nc3cnn(C)c3)n2)ccc1CN1CCN(CC2CN(O)C2)CC1=O | 80 |  |  |  |  |
| C=CC(=O)N(C)CCOc1cnccc1-c1ccc(CN2CCN(CC(C)C)CC2=O)c(C)c1 | 0.65 | 633 | 160 | 2340 |  |
| Cc1cc(-c2ccnc(Nc3cnn(C)c3)n2)ccc1CN1CCN(CC2CCC2)CC1=O | 3 |  |  |  | IC50 [2]: 930 nM |
| C=CC(=O)N(C)CCOc1cnccc1-c1ccc(CN2CCN(C)CC2=O)c(C)c1 | 315 | 95 | > 10000 | 620 |  |
